The results in this text go back to US20030083469A1, “Allosteric control of nuclear hormone receptors” (The Salk Institute for Biological Studies, priority 1995, published 2003).

What all share (assay type): cell-based
For assay [1], the target named is T1, GAL chimera containing the LBD of VDR + RXR LBD (Homo sapiens, UniProt P19793).
T1 construct: or the human RXRα LBD (Glu 203 -Thr 462); expressed in transfected cells; host or cells: CV-1
T1 sequence (P19793 203-462): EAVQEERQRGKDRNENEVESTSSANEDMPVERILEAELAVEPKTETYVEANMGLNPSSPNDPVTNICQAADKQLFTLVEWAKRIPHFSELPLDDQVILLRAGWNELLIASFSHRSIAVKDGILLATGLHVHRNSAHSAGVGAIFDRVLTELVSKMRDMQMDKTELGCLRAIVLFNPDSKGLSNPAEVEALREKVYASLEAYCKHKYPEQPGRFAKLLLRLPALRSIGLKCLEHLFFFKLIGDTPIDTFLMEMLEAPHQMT
Briefly: Transient transfection of GAL-VDR LBD chimera with RXR LBD. Conditions: 100 nM LG69. How it is done:
(§1) CV-1 cells were grown in Dulbecco's Modified Eagle's medium supplemented with 10% resin-charcoal stripped (Samuels et al., Endocrinology 105:80-85 (1979)) fetal bovine serum, 50 U/ml penicillin G and 50 μg/ml streptomycin sulfate (DMEM-FBS) at 37° C. in 5% CO2. One day prior to transfection, cells were plated to 50-80% confluence using phenol-red free DMEM-FBS. Cells were transfected by lipofection using N-{2-(2,3)-dioleoyloxy)propyl-N,N,N-trimethyl ammonium methyl sulfate} according to the manufacturer's instructions (DOTAP, Boehringer Mannheim). […] Cells were harvested and assayed for luciferase and β-galactosidase activity. All points were performed in triplicate in each experiment and varied by less than 10%. Each experiment was repeated three or more times with similar results.
Since RXR serves as a silent partner in the T3R and RAR pathways, it was next investigated whether RXR could serve as an active component in other complexes. To search for such complexes, the LBD of a number of nuclear receptors were fused to the GAL4 DBD, and tested to determine whether the RXR LBD could confer LG69 responsiveness upon these GAL-LBD chimeras. […] Normalized luciferase activity was determined and plotted as fold-activation relative to untreated cells.

In the next assay the target is T2, GAL-RXR (Homo sapiens, UniProt P19793).
T2 construct: human RXRα LBD (Glu 203 - Thr 462); expressed in transfected cells; host or cells: CV-1
T2 sequence (P19793 203-462): T1 sequence (P19793 203-462)
Briefly: Transient transfection analysis of GAL-RXR LBD alone (UASG x4 TK-LUC, CV-1 cells). Conditions: 100 nM LG69. How it is done: (§2) CV-1 cells were grown in Dulbecco's Modified Eagle's medium supplemented with 10% resin-charcoal stripped (Samuels et al., Endocrinology 105:80-85 (1979)) fetal bovine serum, 50 U/ml penicillin G and 50 μg/ml streptomycin sulfate (DMEM-FBS) at 37° C. in 5% CO2. One day prior to transfection, cells were plated to 50-80% confluence using phenol-red free DMEM-FBS. Cells were transfected by lipofection using N-{2-(2,3)-dioleoyloxy)propyl-N,N,N-trimethyl ammonium methyl sulfate} according to the manufacturer's instructions (DOTAP, Boehringer Mannheim). […]. All points were performed in triplicate in each experiment and varied by less than 10%. Each experiment was repeated three or more times with similar results.
Thus, a chimeric protein was constructed containing the yeast GAL4 DBD linked to the RXR LBD (GAL-RXR). The ability of this RXR-chimera to respond to LG69 was initially examined in the presence of truncated receptors containing the LBDs of T3R or RAR. Thus, transient transfection analysis of GAL-RXR LBD was carried out in the presence of T3R, RAR or VDR LBDs. Reporter constructs contained 4 copies of the UASG cloned upstream of the TK-LUC reporter. […] Normalized luciferase activity was determined and plotted as reporter activity (see FIG. 3).
[…]. Normalized luciferase activity was determined and plotted as fold-activation relative to untreated cells.

The target in another assay is T3, Nurrl (Mus musculus, UniProt Q06219).
T3 construct: an expression vector for full-length mouse Nurrl; expressed in transfected cells; host or cells: CV-1
T3 sequence (Q06219 whole entry): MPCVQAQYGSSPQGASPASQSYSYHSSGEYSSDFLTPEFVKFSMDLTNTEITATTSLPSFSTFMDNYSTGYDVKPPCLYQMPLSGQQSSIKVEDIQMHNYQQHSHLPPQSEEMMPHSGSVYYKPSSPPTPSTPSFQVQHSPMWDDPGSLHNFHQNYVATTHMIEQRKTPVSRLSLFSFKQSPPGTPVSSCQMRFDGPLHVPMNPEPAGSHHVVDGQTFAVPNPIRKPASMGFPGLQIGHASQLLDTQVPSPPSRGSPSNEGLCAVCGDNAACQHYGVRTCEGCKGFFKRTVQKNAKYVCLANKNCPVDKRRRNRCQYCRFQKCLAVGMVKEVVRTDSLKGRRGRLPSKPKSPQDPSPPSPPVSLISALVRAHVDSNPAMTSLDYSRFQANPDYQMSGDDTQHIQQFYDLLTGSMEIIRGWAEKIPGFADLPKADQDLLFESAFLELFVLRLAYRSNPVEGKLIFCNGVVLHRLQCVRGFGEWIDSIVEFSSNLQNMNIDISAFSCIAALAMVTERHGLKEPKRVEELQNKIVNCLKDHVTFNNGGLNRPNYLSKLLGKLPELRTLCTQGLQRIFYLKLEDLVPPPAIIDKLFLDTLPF
In words: Transient transfection of full-length Nurrl on NBRE x3 TK-LUC. Conditions: Nurrl alone; 100 nM LG69. On the procedure: as §1
Thus, CV-1 cells were tranfected with NBRE×3 TK-LUC (300 ng/10^5 cells) , CMX-βgal (500 ng/10^5 cells), alone or with CMX-Nurrl (100 ng/10^5 cells) and CMX-hRXRα (100 ng/10^5 cells) as indicated in FIG. 7B. Following transfection, cells were treated with or without 100 nM LG69. Normalized luciferase activity was determined and plotted as reporter activity.

For another assay, the target named is T4, RXR (Homo sapiens, UniProt P19793).
T4 construct: transient transfection analysis of full-length Nurrl and/or RXR; expressed in transfected cells; host or cells: CV-1
T4 sequence (P19793 1-462): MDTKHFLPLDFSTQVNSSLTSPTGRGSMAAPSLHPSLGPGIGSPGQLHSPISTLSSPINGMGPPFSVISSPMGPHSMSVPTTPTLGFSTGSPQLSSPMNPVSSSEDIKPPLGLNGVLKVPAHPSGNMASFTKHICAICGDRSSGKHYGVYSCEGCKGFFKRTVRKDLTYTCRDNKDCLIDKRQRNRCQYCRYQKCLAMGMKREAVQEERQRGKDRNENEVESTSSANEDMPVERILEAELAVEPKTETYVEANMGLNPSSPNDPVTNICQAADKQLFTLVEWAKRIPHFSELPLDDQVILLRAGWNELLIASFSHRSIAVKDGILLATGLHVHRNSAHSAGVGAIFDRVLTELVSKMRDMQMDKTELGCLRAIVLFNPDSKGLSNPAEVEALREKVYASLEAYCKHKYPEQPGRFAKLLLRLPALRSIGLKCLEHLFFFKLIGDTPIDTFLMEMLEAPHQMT
Briefly: Transient transfection of RXR on CRBPII TK-LUC reporter. The settings on record: limiting RXR (20 ng/10^5 cells); LG69. How it is done:
as §2
Using sub-optimal amounts of RXR-expression vector, the CRBPII reporter was compared with a 3-copy NBRE reporter as follows. Cells were transfected as described with respect to FIG. 7B, but with a 5-fold lower amount of CMX-hRXRα (20 ng/10^5 cells). CRBPII TK-LUC (300 ng/10^5 cells) was used where indicated.

As for `CC=C(c1ccc(C(=O)O)cc1)c1cc2c(cc1C)C(C)(C)CCC2(C)C` [LG69, 4-{1-(3,5,5,8,8-pentamethyl-5,6,7,8-tetrahydro-2-napthalenyl)-1-propenyl}benzoic acid], the LG69 inducibility result in assay [1] was “not observed”. The “activation of the UASG reporter by GAL-RXR in response to ligand” value on GAL-RXR is recorded as “activated”. Moreover, at GAL-RXR (GAL-RXR alone), the “fold response to LG69” value turned out to be 69 fold. Further, on Nurrl, the “responsiveness of Nurrl on the NBRE reporter” value was “not responsive”. In addition, the “activation of the CRBPII reporter” value on RXR was “minimal activation”.
